How the values were obtained:
Test in all cases: Histone peptide microarray
Format in all cases: binding, human
AIRE (PP) = conditions: GST-tagged AIRE (PP), sheet Array Heatmap, each array performed twice, total n = 4
How it was run: (§1)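 GST-PHD reader, 0.5 μM, probed on 293-peptide histone array (single/combinatorial PTMs); optimized array protocol; signal = mean ± SD, n = 4.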

BAZ2B = conditions: GST-tagged BAZ2B, sheet Array Heatmap, each array performed twice, total n = 4
How it was run: as §1

BPTF (PB) = conditions: GST-tagged BPTF (PB = PHD + Bromodomain), sheet Array Heatmap, each array performed twice, total n = 4
How it was run: as §1

CHD4 (PPCC) = conditions: for Array Heatmap signal (histone peptide microarray): GST-tagged CHD4 (PPCC = Dual PHD + Dual Chromodomain), sheet Array Heatmap, each array performed twice, total n = 4
How it was run: as §1

CHD5 (PCC) = conditions: GST-tagged CHD5 (PCC = PHD + Dual Chromodomain), sheet Array Heatmap, each array performed twice, total n = 4
How it was run: as §1

CHD5 (PPCC) = conditions: GST-tagged CHD5 (PPCC = Dual PHD + Dual Chromodomain), sheet Array Heatmap, each array performed twice, total n = 4
How it was run: as §1

DIDO1 = conditions: GST-tagged DIDO1, sheet Array Heatmap, each array performed twice, total n = 4
How it was run: as §1

DPF2 (PPC2W2) = conditions: GST-tagged DPF2 (PPC2W2 = Dual PHD + C2W2-type Zn-finger), sheet Array Heatmap, each array performed twice, total n = 4
How it was run: as §1

ING1 = conditions: GST-tagged ING1, sheet Array Heatmap, each array performed twice, total n = 4
How it was run: as §1

ING3 = conditions: GST-tagged ING3, sheet Array Heatmap, each array performed twice, total n = 4
How it was run: as §1

ING4 = conditions: GST-tagged ING4, sheet Array Heatmap, each array performed twice, total n = 4
How it was run: as §1

ING5 = conditions: GST-tagged ING5, sheet Array Heatmap, each array performed twice, total n = 4
How it was run: as §1

KDM4C (TTP) = conditions: GST-tagged KDM4C (TTP = Tandem Tudor domain + PHD), sheet Array Heatmap, each array performed twice, total n = 4
How it was run: as §1

KDM5A (1) = conditions: GST-tagged KDM5A (1), sheet Array Heatmap, each array performed twice, total n = 4
How it was run: as §1

KDM5A (3) = conditions: GST-tagged KDM5A (3), sheet Array Heatmap, each array performed twice, total n = 4
How it was run: as §1

KDM5B (1) = conditions: GST-tagged KDM5B (1), sheet Array Heatmap, each array performed twice, total n = 4
How it was run: as §1

KDM5B (3) = conditions: GST-tagged KDM5B (3), sheet Array Heatmap, each array performed twice, total n = 4
How it was run: as §1

PHF13 = conditions: GST-tagged PHF13, sheet Array Heatmap, each array performed twice, total n = 4
How it was run: as §1

PHF23 = conditions: GST-tagged PHF23, sheet Array Heatmap, each array performed twice, total n = 4
How it was run: as §1

PHF2 = conditions: GST-tagged PHF2, sheet Array Heatmap, each array performed twice, total n = 4
How it was run: as §1

PHF8 = conditions: GST-tagged PHF8, sheet Array Heatmap, each array performed twice, total n = 4
How it was run: as §1

PHRF1 (RP) = conditions: GST-tagged PHRF1 (RP), sheet Array Heatmap, each array performed twice, total n = 4
How it was run: as §1

RAG2 = conditions: GST-tagged RAG2, sheet Array Heatmap, each array performed twice, total n = 4
How it was run: as §1

SP140L = conditions: GST-tagged SP140L, sheet Array Heatmap, each array performed twice, total n = 4
How it was run: as §1

TAF3 = conditions: GST-tagged TAF3, sheet Array Heatmap, each array performed twice, total n = 4
How it was run: as §1

TRIM66 (PB) = conditions: GST-tagged TRIM66 (PB = PHD + Bromodomain), sheet Array Heatmap, each array performed twice, total n = 4
How it was run: as §1

relative binding (CHD4 (PPCC); peptide microarray, reader 0.5 μM, n = 4): increased binding
Substance: H3K9ac: H3 1-20 [Peptide H3K9ac]
Array Heatmap signal (histone peptide microarray) (AIRE (PP); listed as 2): 0.4059
Array Heatmap signal (histone peptide microarray) (AIRE (PP); listed as 3): 0.3893
Array Heatmap signal (histone peptide microarray) (BAZ2B; listed as 2): 0.4731
Array Heatmap signal (histone peptide microarray) (BAZ2B; listed as 3): 0.4634
Array Heatmap signal (histone peptide microarray) (BPTF (PB); listed as 2): 0.3339
Array Heatmap signal (histone peptide microarray) (BPTF (PB); listed as 3): 0.3268
Array Heatmap signal (histone peptide microarray) (CHD4 (PPCC); listed as 2): 0.6247
Array Heatmap signal (histone peptide microarray) (CHD4 (PPCC); listed as 3): 0.6748
Array Heatmap signal (histone peptide microarray) (CHD5 (PCC); listed as 2): 0.8342
Array Heatmap signal (histone peptide microarray) (CHD5 (PCC); listed as 3): 0.7526
Array Heatmap signal (histone peptide microarray) (CHD5 (PPCC); listed as 2): 0.5875
Array Heatmap signal (histone peptide microarray) (CHD5 (PPCC); listed as 3): 0.5535
Array Heatmap signal (histone peptide microarray) (DIDO1; listed as 2): 0.6642
Array Heatmap signal (histone peptide microarray) (DIDO1; listed as 3): 0.7409
Array Heatmap signal (histone peptide microarray) (DPF2 (PPC2W2); listed as 2): 0.7428
Array Heatmap signal (histone peptide microarray) (DPF2 (PPC2W2); listed as 3): 0.7589
Array Heatmap signal (histone peptide microarray) (ING1; listed as 2): 0.5257
Array Heatmap signal (histone peptide microarray) (ING1; listed as 3): 0.5645
Array Heatmap signal (histone peptide microarray) (ING3; listed as 2): 0.4489
Array Heatmap signal (histone peptide microarray) (ING3; listed as 3): 0.4338
Array Heatmap signal (histone peptide microarray) (ING4; listed as 2): 0.4346
Array Heatmap signal (histone peptide microarray) (ING4; listed as 3): 0.4319
Array Heatmap signal (histone peptide microarray) (ING5; listed as 2): 0.3289
Array Heatmap signal (histone peptide microarray) (ING5; listed as 3): 0.3311
Array Heatmap signal (histone peptide microarray) (KDM4C (TTP); listed as 2): 0.4318
Array Heatmap signal (histone peptide microarray) (KDM4C (TTP); listed as 3): 0.4332
Array Heatmap signal (histone peptide microarray) (KDM5A (1); listed as 2): 0.4743
Array Heatmap signal (histone peptide microarray) (KDM5A (1); listed as 3): 0.4479
Array Heatmap signal (histone peptide microarray) (KDM5A (3); listed as 2): 0.6003
Array Heatmap signal (histone peptide microarray) (KDM5A (3); listed as 3): 0.6283
Array Heatmap signal (histone peptide microarray) (KDM5B (1); listed as 2): 0.6899
Array Heatmap signal (histone peptide microarray) (KDM5B (1); listed as 3): 0.6761
Array Heatmap signal (histone peptide microarray) (KDM5B (3); listed as 2): 0.5795
Array Heatmap signal (histone peptide microarray) (KDM5B (3); listed as 3): 0.5654
Array Heatmap signal (histone peptide microarray) (PHF13; listed as 2): 0.5811
Array Heatmap signal (histone peptide microarray) (PHF13; listed as 3): 0.5738
Array Heatmap signal (histone peptide microarray) (PHF23; listed as 2): 0.5351
Array Heatmap signal (histone peptide microarray) (PHF23; listed as 3): 0.5457
Array Heatmap signal (histone peptide microarray) (PHF2; listed as 2): 0.6188
Array Heatmap signal (histone peptide microarray) (PHF2; listed as 3): 0.5837
Array Heatmap signal (histone peptide microarray) (PHF8; listed as 2): 0.3437
Array Heatmap signal (histone peptide microarray) (PHF8; listed as 3): 0.3517
Array Heatmap signal (histone peptide microarray) (PHRF1 (RP); listed as 2): 0.9096
Array Heatmap signal (histone peptide microarray) (PHRF1 (RP); listed as 3): 0.8949
Array Heatmap signal (histone peptide microarray) (RAG2; listed as 2): 0.3184
Array Heatmap signal (histone peptide microarray) (RAG2; listed as 3): 0.2998
Array Heatmap signal (histone peptide microarray) (SP140L; listed as 2): 0.3674
Array Heatmap signal (histone peptide microarray) (SP140L; listed as 3): 0.3745
Array Heatmap signal (histone peptide microarray) (TAF3; listed as 2): 0.3565
Array Heatmap signal (histone peptide microarray) (TAF3; listed as 3): 0.3052
Array Heatmap signal (histone peptide microarray) (TRIM66 (PB); listed as 2): 0.8314
Array Heatmap signal (histone peptide microarray) (TRIM66 (PB); listed as 3): 0.731
